Results on 19 compounds are retold here after patent publication US6410585B1, “Inhibitors of protein tyrosine phosphatase” (priority 1997, dated 2002).

The test concerns the target T1, rat PTP1 (Rattus norvegicus, UniProt P20417).
T1 construct: a C-terminal truncation of rat PTP1 (amino acid residues 1-322); GST (N, cleaved yes); made in house; host or cells: E. coli strain TG-1 (pGEX-2T)
T1 sequence (P20417 1-322): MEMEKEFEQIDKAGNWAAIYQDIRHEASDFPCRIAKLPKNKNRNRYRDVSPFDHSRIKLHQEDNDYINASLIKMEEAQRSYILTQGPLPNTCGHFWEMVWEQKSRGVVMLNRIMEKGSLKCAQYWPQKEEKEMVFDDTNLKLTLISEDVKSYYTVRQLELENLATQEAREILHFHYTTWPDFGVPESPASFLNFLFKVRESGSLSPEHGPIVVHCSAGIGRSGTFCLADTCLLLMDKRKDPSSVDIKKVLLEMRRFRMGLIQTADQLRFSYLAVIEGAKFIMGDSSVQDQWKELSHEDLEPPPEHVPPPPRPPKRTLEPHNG
Briefly: PTP1 assay, pNPP hydrolysis (rate of change in A405). The format is biochemical. An excerpt: PTP1 Assays: A construct, which consisted of a C-terminal truncation of rat PTP1 (amino acid residues 1-322) (cloned from a rat brain library) with an N-terminal glutathione S-transferase (GST) tag and an adjacent thrombin cleavage site, was inserted into vector plasmid pGEX-2T and transformed into E. coli strain TG-1 under the control of a lac promoter (K. L. Guan and J. E. Dixon (1991) Eukaryotic proteins expressed in Escherichia coli: an improved thrombin cleavage and purification procedure of fusion proteins with glutathione S-transferase. Analyt. Biochem. 192: 262-267). The GST-fusion protein was purified on a glutathione agarose affinity column, the GST tag was cleaved with thrombin, and the active enzyme was recovered for use in an assay to identify PTP inhibitors.
PTP1 activity is measured using either p-nitrophenol phosphate (pNPP) or a triphosphopeptide (that matches residues 1142 through 1153 of the β-subunit and the insulin receptor) as substrate in a 96-well microtiter plate format. An assay pH of 7.2 is used for standard assays (measured 405=9800 at pH 7.2).
Standard assays are conducted at room temperature in a total volume of 0.2 ml that contains Hepes buffer (50 mM, pH 7.2), NaCl (50 mM), EDTA (1 mM), DTT (1 mM), bovine serum albumin (1 mg/ml), pNPP (1 mM) and PTP1 (35 ng/ml). Compounds (2 μl of 10 mM solutions) are pipetted into wells of microtiter plates followed by 198 μl of premixed reaction mix (with PTP1 and pNPP added immediately before use). The rate of change in A405 is recorded for 60 min. Two wells on each plate contain DMSO controls and two wells contain sodium orthovanadate (1 mM) which inhibits PTP1-catalyzed hydrolysis of pNPP completely. Data are expressed as percent inhibition relative to the average of the DMSO controls measured on the same microtiter plate.

[1] abbreviates: Conc 1 uM, pNPP hydrolysis, Table 2, read-out: PTP1 Inhib PTP1N. % Inhib.
The mark [2] stands for this setting: Conc 10 uM, pNPP hydrolysis, Table 2, read-out: PTP1 Inhib PTP1N. % Inhib.
The mark [3] stands for this setting: Conc 100 uM, pNPP hydrolysis, Table 2, read-out: PTP1 Inhib PTP1N. % Inhib.
[4] abbreviates: inhibition of pNPP-hydrolysis, compound concentration 1 μM, read-out: % Inhibition.
Where [5] appears, read: inhibition of pNPP-hydrolysis, compound concentration 10 μM, read-out: % Inhibition.
Where [6] appears, read: inhibition of pNPP-hydrolysis, compound concentration 100 μM, read-out: % Inhibition.

Like-named read-outs stand apart in the source and are kept apart here.

Take `CCCCCNC(=O)C(Cc1ccc(OC(COO)COO)cc1)NC(=O)C(Cc1ccc(OCc2ccccc2)cc1)NC(=O)CCC(=O)O` (stereo not drawn): under setting [1], the inhibition at 1 µM turned out to be 30%. Further, under setting [2], the inhibition at 10 µM came out at 80%. Under setting [3], the inhibition at 100 µM worked out at 98%.
The corresponding values for `CC(C)CC(CO)NC(=O)C(Cc1ccc(OC(COO)COO)cc1)NC(=O)CCC(=O)O` (stereo not drawn) are 3%, 15% and 57%.
For `CCCCCNC(=O)C(Cc1ccc(OC(COO)COO)cc1)NC(=O)[C@H](Cc1ccc(C(=O)c2ccccc2)cc1)NC(C)=O` (stereo partly drawn), the inhibition at 1 µM under setting [1] was 9%. The inhibition at 10 µM under setting [2] came out at 42%. In addition, the inhibition at 100 µM under setting [3] stood at 87%.
Take `CC(C)(C)OC(=O)N[C@@H](Cc1ccccc1)C(=O)N[C@H](CO)Cc1ccc(OCC(=O)O)c(C(=O)O)c1` [Example 148, 5-[(2S)-2-({(2S)-2-[(tert-butoxycarbonyl)amino]-3-phenylpropanoyl}amino)-3-hydroxypropyl]-2-(carboxymethoxy)benzoic Acid]: under setting [4], the inhibition at 1 µM came to 5%. Under setting [5], the inhibition at 10 µM came to 31%. In addition, the inhibition at 100 µM under setting [6] turned out to be 80%.
The like results for `CCCCCNC(=O)[C@H](Cc1ccc(OCC(=O)O)c(C(=O)O)c1)NC(=O)c1cnc(Cl)c(Cl)c1` [Example 154-2, 2-(carboxymethoxy)-5-[(2S)-2-{[(5,6-dichloro-3-pyridinyl)carbonyl]amino}-3-oxo-3-(pentylamino)propyl]benzoic acid] were, in that order, 23%, 72% and 95%.
As to `O=C(O)COc1ccc(C[C@H](NC(=O)c2ccccc2)C(=O)NCCCCc2ccccc2)cc1C(=O)O` [Example 154-8, 5-{(2S)-2-(benzoylamino)-3-oxo-3-[(4-phenylbutyl)amino]propyl}-2-(carboxymethoxy)benzoic acid], the inhibition at 1 µM under setting [4] is 30%. Under setting [5], the inhibition at 10 µM came to 81%. Further, under setting [6], the inhibition at 100 µM stood at 97%.
The like results for `O=C(O)COc1ccc(C[C@H](NC(=O)c2ccc(Cl)cc2)C(=O)NCCCCc2ccccc2)cc1C(=O)O` [Example 154-9, 2-(carboxymethoxy)-5-{(2S)-2-[(4-chlorobenzoyl)amino]-3-oxo-3-[(4-phenylbutyl)amino]propyl}benzoic acid] were, in that order, 37%, 85% and 97%.
The like results for `O=C(O)COc1ccc(C[C@H](NC(=O)c2cccnc2)C(=O)NCCCCc2ccccc2)cc1C(=O)O` [Example 154-11, 2-(carboxymethoxy)-5-{(2S)-3-oxo-3-[(4-phenylbutyl)amino]-2-[(3-pyridinylcarbonyl)amino]propyl}benzoic acid] were, in that order, 22%, 73% and 95%.
As to `O=C(O)COc1ccc(C[C@H](NC(=O)c2ccoc2)C(=O)NCCCCc2ccccc2)cc1C(=O)O` [Example 154-15, 2-(carboxymethoxy)-5-{(2S)-2-(3-furoylamino)-3-oxo-3-[(4-phenylbutyl)amino]propyl}benzoic acid], the inhibition at 1 µM under setting [4] came out at 80%. In addition, the inhibition at 10 µM under setting [5] was 31%. For the same compound, under setting [6], the inhibition at 100 µM came to 97%.
`O=C(O)COc1ccc(C[C@H](NC(=O)c2ccccc2)C(=O)NCCCCc2ccc(Cl)cc2)cc1C(=O)O` [Example 154-19, 5-((2S)-2-(benzoylamino)-3-{[4-(4-chlorophenyl)butyl]amino}-3-oxopropyl)-2-(carboxymethoxy)benzoic acid]: the inhibition at 1 µM under setting [4] stood at 40%. Further, the inhibition at 10 µM under setting [5] is 55%. The inhibition at 100 µM under setting [6] is 98%.
The corresponding values for `O=C(O)COc1ccc(C[C@H](NC(=O)c2ccc(Cl)cc2)C(=O)NCCCCc2ccc(Cl)cc2)cc1C(=O)O` [Example 154-20, 2-(carboxymethoxy)-5-((2S)-2-[(4-chlorobenzoyl)amino]-3-{[4-(4-chlorophenyl)butyl]amino}-3-oxopropyl)benzoic acid] are 27%, 79% and 98%.
The corresponding values for `O=C(O)COc1ccc(C[C@H](NC(=O)c2ccoc2)C(=O)NCCCCc2ccc(Cl)cc2)cc1C(=O)O` [Example 154-26, 2-(carboxymethoxy)-5-[(2S)-3-{[4-(4-chlorophenyl)butyl]amino}-2-(3-furoylamino)-3-oxopropyl]benzoic acid] are 30%, 78% and 97%.
For `COc1ccc(CCCCNC(=O)[C@H](Cc2ccc(OCC(=O)O)c(C(=O)O)c2)NC(=O)c2ccc(Cl)nc2)cc1` [Example 154-34, 2-(carboxymethoxy)-5-((2S)-2-{[(6-chloro-3-pyridinyl)carbonyl]amino}-3-{[4-(4-methoxyphenyl)butyl]amino}-3-oxopropyl)benzoic acid], the inhibition at 1 µM under setting [4] turned out to be 26%. Moreover, the inhibition at 10 µM under setting [5] was found to be 77%. For the same compound, under setting [6], the inhibition at 100 µM was determined as 96%.
The like results for `O=C(O)COc1ccc(C[C@H](NS(=O)(=O)c2ccc(F)cc2F)C(=O)NCCCCc2ccc(Cl)cc2)cc1C(=O)O` [Example 156-1, 2-(carboxymethoxy)-5-((2S)-3-{[4-(4-chlorophenyl)butyl]amino}-2-{[(2,4-difluorophenyl)sulfonyl]amino}-3-oxopropyl)benzoic acid] were, in that order, 18%, 69% and 95%.
In the case of `O=C(O)COc1ccc(C[C@H](NS(=O)(=O)/C=C/c2ccccc2)C(=O)NCCCCc2ccc(Cl)cc2)cc1C(=O)O` [Example 156-7, 2-(carboxymethoxy)-5-[(2S)-3-{[4-(4-chlorophenyl)butyl]amino}-3-oxo-2-({[(E)-2-phenylethenyl]sulfonyl}amino)propyl]benzoic acid], the inhibition at 1 µM under setting [4] came out at 18%. Also, the inhibition at 10 µM under setting [5] is 69%. For the same compound, the inhibition at 100 µM under setting [6] stood at 95%.
The corresponding values for `O=C(O)COc1ccc(C[C@H](NS(=O)(=O)c2ccccc2)C(=O)NCCCOc2ccccc2)cc1C(=O)O` [Example 156-16, 2-(carboxymethoxy)-5-{(2S)-3-oxo-3-[(3-phenoxypropyl)amino]-2-[(phenylsulfonyl)amino]propyl}benzoic acid] are 20%, 72% and 95%.
The like results for `CC(C)(C)OC(=O)N[C@@H](Cc1ccccc1)C(=O)N[C@@H](Cc1ccc(OCC(=O)O)c(C(=O)O)c1)C(=O)NCCCc1ccccc1` [Example 157-1, 5-{(2S)-2-({(2S)-2-[(tert-Butoxycarbonyl)amino]-3-phenylpropanoyl}amino)-3-oxo-3-[(3-phenylpropyl)amino]propyl}-2-(carboxymethoxy)benzoic Acid] were, in that order, 39%, 84% and 97%.
On to `CC(C)(C)OC(=O)N[C@@H](Cc1ccccc1)C(=O)N[C@@H](Cc1ccc(OCC(=O)O)c(C(=O)O)c1)C(=O)NCCCCc1ccccc1` [Example 157-2, 5-{(2S)-2-({(2S)-2-[(tert-Butoxycarbonyl)amino]-3-phenylpropanoyl}amino)-3-oxo-3-[(4-phenylbutyl)amino]propyl}-2-(carboxymethoxy)benzoic Acid], for which the inhibition at 1 µM under setting [4] was found to be 64%. Further, the inhibition at 10 µM under setting [5] stood at 93%. In addition, the inhibition at 100 µM under setting [6] amounted to 98%.
With `CC(C)(C)OC(=O)N[C@@H](Cc1ccccc1)C(=O)N[C@@H](Cc1ccc(OCC(=O)O)c(C(=O)O)c1)C(=O)NCCO` [Example 157-3, 5-{(2S)-2-({(2S)-2-[(tert-Butoxycarbonyl)amino]-3-phenylpropanoyl}amino)-3-[(2-hydroxyethyl)amino]-3-oxopropyl}-2-(carboxymethoxy)benzoic], the “% Inhibition” value is 22% (inhibition of pNPP-hydrolysis, compound concentration 1 μM); 72% (inhibition of pNPP-hydrolysis, compound concentration 10 μM); 94% (inhibition of pNPP-hydrolysis, compound concentration 100 μM).

What is called % Inhibition is how much of the control response was suppressed. A low value points to a response near the control.
